Values joined by “and” are separate entries in the source; they are usually repeats but may differ in a detail not shown here. Equal entries are not always repeated. ± gives the uncertainty stated by the source. Each block holds one compound with its values, some of them ahead of it.
- viscosity (303 K, 101 kPa): 1.516 ± 0.029 mPa·s
- viscosity (313 K, 101 kPa): 1.275 ± 0.021 mPa·s
- viscosity (323 K, 101 kPa): 1.105 ± 0.015 mPa·s
Structure (SMILES): C=C(C)C(=O)OCCCCCCC

Structure (SMILES): CC(C)CCCC(C)CCCC(C)CCCC(C)C (centres undefined)
- viscosity (298.15 K, 101.33 kPa): 5.479 ± 0.066 mPa·s

Structure (SMILES): CC(F)F
- viscosity (293.35 K, 101 kPa): 0.172 ± 0.0047 mPa·s
- viscosity (294.75 K, 101 kPa): 0.177 ± 0.0049 mPa·s
- viscosity (313.35 K, 101 kPa): 0.1402 ± 0.0038 mPa·s
- viscosity (314.25 K, 101 kPa): 0.1409 ± 0.0038 mPa·s

Structure (SMILES): CC(O)C(C)O (centres undefined)
- viscosity (308.15 K, 101.3 kPa): 57.11 ± 0.39 mPa·s
- viscosity (313.15 K, 101.3 kPa): 39.26 ± 0.38 mPa·s
- viscosity (318.15 K, 101.3 kPa): 27.62 ± 0.27 mPa·s
- viscosity (323.15 K, 101 kPa): 16.98 ± 1 mPa·s

Structure (SMILES): CCCCCCCCCCCCO
- viscosity (303.15 K, 101.33 kPa): 12.95 ± 0.12 mPa·s

- viscosity (303.15 K, 101 kPa): 1.32e+07 ± 4.3e+06 mPa·s
Structure (SMILES): CCCCCCCCCCCCOS(=O)(=O)[O-].CCCCn1cc[n+](C)c1

- viscosity (303.15 K, 101.33 kPa): 1.165 ± 0.0096 mPa·s
- viscosity (313.15 K, 101 kPa): 0.9864 ± 0.0085 mPa·s
- viscosity (313.15 K, 101.33 kPa): 0.9864 ± 0.0085 mPa·s
Structure (SMILES): CCCCCCCCN
- viscosity (303.15 K, 101 kPa): 1.169 ± 0.023 mPa·s and 1.169 ± 0.013 mPa·s and 1.165 ± 0.0096 mPa·s
- viscosity (308.15 K, 101 kPa): 0.9267 ± 0.095 mPa·s and 0.9267 ± 0.012 mPa·s

Structure (SMILES): CCOC(=O)c1ccccc1C(=O)OCC
- viscosity (313.15 K, 101.33 kPa): 6.3 ± 0.063 mPa·s

- viscosity (293.15 K, 102 kPa): 0.852 ± 0.023 mPa·s
- viscosity (303.15 K, 102 kPa): 0.751 ± 0.022 mPa·s
- viscosity (313.15 K, 102 kPa): 0.668 ± 0.022 mPa·s
- viscosity (323.15 K, 102 kPa): 0.598 ± 0.022 mPa·s
Structure (SMILES): CCc1cccc(CC)c1

- viscosity (298.15 K, 100 kPa): 1 ± 0.022 mPa·s
- viscosity (313.15 K, 100 kPa): 0.74 ± 0.016 mPa·s
Structure (SMILES): COC(=O)OCC(F)(F)F

Structure (SMILES): Fc1ccccc1
- viscosity (303.15 K, 101 kPa): 0.514 ± 0.011 mPa·s and 0.523 ± 0.019 mPa·s and 0.523 ± 0.011 mPa·s
- viscosity (308.15 K, 101 kPa): 0.495 ± 0.018 mPa·s and 0.495 ± 0.01 mPa·s
- viscosity (313.15 K, 101 kPa): 0.46 ± 0.011 mPa·s and 0.467 ± 0.017 mPa·s and 0.467 ± 0.01 mPa·s

Structure (SMILES): O=C(O)C(Cl)Cl
- viscosity (308.15 K, 101 kPa): 4.779 ± 0.2 mPa·s
- viscosity (323.15 K, 101 kPa): 3.243 ± 0.14 mPa·s

Structure (SMILES): [Br-].[Br-].[Br-].[Br-].[Sn+4]
- viscosity (313.15 K, 101 kPa): 1.97 ± 0.07 mPa·s and 2.101 ± 0.055 mPa·s
- viscosity (323.15 K, 101 kPa): 1.78 ± 0.07 mPa·s

Structure (SMILES): c1ccc(Nc2ccccc2)cc1
- viscosity (323.15 K, 101 kPa): 5.95 ± 0.35 mPa·s

— the CheMixHub viscosity set
